Measured values published in patent US10004701B2, “Methods and compositions for treating infection” (UNIVERSITY OF ROCHESTER, priority 2012, dated 2018).
Structures can show the parent of a compound that is named as a salt. Where two headings read alike, the source gives them in different places. Where a SMILES comes first, the peptide text is derived from it. Bridges are numbered along the chain shown (N, C = ends). [ ]: non-standard residue; d: D form. The star is where a group is joined. Ileψ(thiazoline)Cys = CC[C@H](C)[C@H](N)C1=N[C@H](C(=O)*)CS1; dOrn = NCCC[C@@H](N)C(=O)O

How the values were obtained:
Assay in all cases: AK assay 384-well format, Prestwick library screening
[1] = test system: S. aureus strain USA300-0114; type: cell-based, Staphylococcus aureus; conditions: Staphylococcus aureus, USA300, 3 h, 50 μM final drug concentration
[2] = test system: K. pneumoniae; type: cell-based, Klebsiella pneumoniae; conditions: Klebsiella pneumoniae, 3 h, 50 μM final drug concentration
[3] = test system: P. aeruginosa; type: cell-based, Pseudomonas aeruginosa; conditions: Pseudomonas aeruginosa, 3 h, 50 μM final drug concentration
[4] = test system: A. baumannii strain 98-37-09; type: cell-based, Acinetobacter baumannii; conditions: Acinetobacter baumannii, 983709, 3 h, 50 μM final drug concentration
[5] = test system: E. faecium; type: cell-based, Enterococcus faecium; conditions: Enterococcus faecium, 3 h, 50 μM final drug concentration
[6] = test system: E. coli; type: cell-based, Escherichia coli; conditions: Escherichia coli, 3 h, 50 μM final drug concentration
[7] = test system: E. cloacae; type: cell-based, Enterobacter cloacae; conditions: Enterobacter cloacae, 3 h, 50 μM final drug concentration
[8] = planktonic S. aureus, cutoff for positive-scoring molecules 3-fold increase, read-out: AK-based Prestwick Library Screening Results, S. aureus (increase in extracellular AK activity)
[9] = planktonic K. pneumoniae, cutoff for positive-scoring molecules 3-fold increase, read-out: AK-based Prestwick Library Screening Results, K. pneumoniae (increase in extracellular AK activity)
[10] = planktonic P. aeruginosa, cutoff for positive-scoring molecules 3-fold increase, read-out: AK-based Prestwick Library Screening Results, P. aeruginosa (increase in extracellular AK activity)
[11] = planktonic A. baumannii, cutoff for positive-scoring molecules 3-fold increase, read-out: AK-based Prestwick Library Screening Results, A. baumannii (increase in extracellular AK activity)
[12] = planktonic E. faecium, cutoff for positive-scoring molecules 3-fold increase, read-out: AK-based Prestwick Library Screening Results, E. faecium (increase in extracellular AK activity)
[13] = planktonic E. coli, cutoff for positive-scoring molecules 3-fold increase, read-out: AK-based Prestwick Library Screening Results, E. coli (increase in extracellular AK activity)
[14] = planktonic E. cloacae, cutoff for positive-scoring molecules 3-fold increase, read-out: AK-based Prestwick Library Screening Results, E. cloacae (increase in extracellular AK activity)
[15] = planktonic, cutoff for positive-scoring molecules 3-fold increase, read-out: AK-based Prestwick Library Screening Results, S. aureus (fold increase in extracellular AK activity)
[16] = planktonic, cutoff for positive-scoring molecules 3-fold increase, read-out: AK-based Prestwick Library Screening Results, K. pneumoniae (fold increase in extracellular AK activity)
[17] = planktonic, cutoff for positive-scoring molecules 3-fold increase, read-out: AK-based Prestwick Library Screening Results, P. aeruginosa (fold increase in extracellular AK activity)
[18] = planktonic, cutoff for positive-scoring molecules 3-fold increase, read-out: AK-based Prestwick Library Screening Results, A. baumannii (fold increase in extracellular AK activity)
[19] = planktonic, cutoff for positive-scoring molecules 3-fold increase, read-out: AK-based Prestwick Library Screening Results, E. faecium (fold increase in extracellular AK activity)
[20] = planktonic, cutoff for positive-scoring molecules 3-fold increase, read-out: AK-based Prestwick Library Screening Results, E. coli (fold increase in extracellular AK activity)
[21] = planktonic, cutoff for positive-scoring molecules 3-fold increase, read-out: AK-based Prestwick Library Screening Results, E. cloacae (fold increase in extracellular AK activity)
[22] = cutoff for positive-scoring molecules 3-fold increase, read-out: AK-based Prestwick Library Screening Results, S. aureus (fold increase in extracellular AK activity)
[23] = cutoff for positive-scoring molecules 3-fold increase, read-out: AK-based Prestwick Library Screening Results, K. pneumoniae (fold increase in extracellular AK activity)
[24] = cutoff for positive-scoring molecules 3-fold increase, read-out: AK-based Prestwick Library Screening Results, P. aeruginosa (fold increase in extracellular AK activity)
[25] = cutoff for positive-scoring molecules 3-fold increase, read-out: AK-based Prestwick Library Screening Results, A. baumannii (fold increase in extracellular AK activity)
[26] = cutoff for positive-scoring molecules 3-fold increase, read-out: AK-based Prestwick Library Screening Results, E. faecium (fold increase in extracellular AK activity)
[27] = cutoff for positive-scoring molecules 3-fold increase, read-out: AK-based Prestwick Library Screening Results, E. coli (fold increase in extracellular AK activity)
[28] = cutoff for positive-scoring molecules 3-fold increase, read-out: AK-based Prestwick Library Screening Results, E. cloacae (fold increase in extracellular AK activity)

In the case of `C[C@H]1[C@H](NC(=O)/C(=N\OC(C)(C)C(=O)O)c2csc(N)n2)C(=O)N1S(=O)(=O)O` [Aztreonam], the fold induction at 50 µM ([1]; 384-well format, cutoff for positive-scoring molecules 3-fold increase, read-out: AK-based Prestwick Library Screening Results, S. aureus (increase in extracellular AK activity)) is reported as 0.6, the fold induction at 50 µM ([2]; 384-well format, cutoff for positive-scoring molecules 3-fold increase, read-out: AK-based Prestwick Library Screening Results, K. pneumoniae (increase in extracellular AK activity)) is reported as 2.6 and the fold induction at 50 µM ([3]; 384-well format, cutoff for positive-scoring molecules 3-fold increase, read-out: AK-based Prestwick Library Screening Results, P. aeruginosa (increase in extracellular AK activity)) is reported as 9.1. For the same compound, the fold induction at 50 µM ([4]; 384-well format, cutoff for positive-scoring molecules 3-fold increase, read-out: AK-based Prestwick Library Screening Results, A. baumannii (increase in extracellular AK activity)) was 5.4, the fold induction at 50 µM ([5]; 384-well format, cutoff for positive-scoring molecules 3-fold increase, read-out: AK-based Prestwick Library Screening Results, E. faecium (increase in extracellular AK activity)) was 1 and the fold induction at 50 µM ([6]; 384-well format, cutoff for positive-scoring molecules 3-fold increase, read-out: AK-based Prestwick Library Screening Results, E. coli (increase in extracellular AK activity)) was 15.9. For the same compound, the fold induction at 50 µM ([7]; 384-well format, cutoff for positive-scoring molecules 3-fold increase, read-out: AK-based Prestwick Library Screening Results, E. cloacae (increase in extracellular AK activity)) was 18.4.
In the case of `CCOC(=O)OC(C)OC(=O)[C@@H]1N2C(=O)[C@@H](NC(=O)[C@H](N)c3ccccc3)[C@H]2SC1(C)C` (stereo partly shown) [Bacampicillin hydrochloride], the fold induction at 50 µM [1, 8] is reported as 0.5, the fold induction at 50 µM [2, 9] is reported as 0.6 and the fold induction at 50 µM [3, 10] is reported as 0.6. The fold induction at 50 µM [4, 11] was 1.3, the fold induction at 50 µM [5, 12] was 1.1 and the fold induction at 50 µM [6, 13] was 11.9. It also gave a fold induction at 50 µM [7, 14] of 0.6.
With `CC[C@H](C)[C@H](N)C1=N[C@H](C(=O)N[C@@H](CC(C)C)C(=O)N[C@H](CCC(=O)O)C(=O)N[C@H](C(=O)N[C@H]2CCCCNC(=O)[C@H](CC(N)=O)NC(=O)[C@@H](CC(=O)O)NC(=O)[C@H](Cc3cnc[nH]3)NC(=O)[C@@H](Cc3ccccc3)NC(=O)[C@H]([C@@H](C)CC)NC(=O)[C@@H](CCCN)NC2=O)[C@@H](C)CC)CS1` [Bacitracin] ({Ileψ(thiazoline)Cys}-L[dE]IK[dOrn]I[dF]H[dD]N; lactam 4-C) the fold induction at 50 µM [1, 15] was 0.4, the fold induction at 50 µM [2, 16] was 0.8 and the fold induction at 50 µM [3, 17] was 0.8. The fold induction at 50 µM [4, 18] was 1.1, the fold induction at 50 µM [5, 19] was 1.3 and the fold induction at 50 µM [6, 20] was 1. It also gave a fold induction at 50 µM [7, 21] of 1.2.
`O=C(O)CCNC(=O)c1ccc(/N=N/c2ccc(O)c(C(=O)O)c2)cc1` [Balsalazide Sodium] gave a fold induction at 50 µM [1, 15] of 0.4, a fold induction at 50 µM [2, 16] of 0.7 and a fold induction at 50 µM [3, 17] of 0.5. It also gave a fold induction at 50 µM [4, 18] of 0.5, a fold induction at 50 µM [5, 19] of 0.9 and a fold induction at 50 µM [6, 20] of 0.5. For the same compound, the fold induction at 50 µM [7, 21] was 0.4.
For `CN(C)C(=O)Oc1cc(OC(=O)N(C)C)cc(C(O)CNC(C)(C)C)c1` (stereo not shown) [Bambuterol hydrochloride], the fold induction at 50 µM [1, 8] was 1.2, the fold induction at 50 µM [2, 9] was 0.9 and the fold induction at 50 µM [3, 10] was 1.2. It also gave a fold induction at 50 µM [4, 11] of 1, a fold induction at 50 µM [5, 12] of 1.1 and a fold induction at 50 µM [6, 13] of 1.3. For the same compound, the fold induction at 50 µM [7, 14] was 1.2.
`CCC(=O)OCC(=O)[C@@]1(OC(=O)CC)[C@@H](C)C[C@H]2[C@@H]3CCC4=CC(=O)C=C[C@]4(C)[C@@]3(Cl)[C@@H](O)C[C@@]21C` [Beclomethasone dipropionate] gave a fold induction at 50 µM [1, 22] of 0.5, a fold induction at 50 µM [2, 23] of 0.9 and a fold induction at 50 µM [3, 24] of 1. For the same compound, the fold induction at 50 µM [4, 25] was 1, the fold induction at 50 µM [5, 26] was 1 and the fold induction at 50 µM [6, 27] was 1.1. For the same compound, the fold induction at 50 µM [7, 28] was 1.5.
Compound `CCC1(C)CC(=O)NC(=O)C1` [Bemegride] has a fold induction at 50 µM ([1]; planktonic, […], read-out: AK-based Prestwick Library Screening Results, S. aureus (fold increase in extracellular AK activity)) of 0.7, a fold induction at 50 µM ([2]; planktonic, […], read-out: AK-based Prestwick Library Screening Results, K. pneumoniae (fold increase in extracellular AK activity)) of 0.6 and a fold induction at 50 µM ([3]; planktonic, […], read-out: AK-based Prestwick Library Screening Results, P. aeruginosa (fold increase in extracellular AK activity)) of 0.6. For the same compound, the fold induction at 50 µM ([4]; planktonic, […], read-out: AK-based Prestwick Library Screening Results, A. baumannii (fold increase in extracellular AK activity)) was 0.7, the fold induction at 50 µM ([5]; planktonic, […], read-out: AK-based Prestwick Library Screening Results, E. faecium (fold increase in extracellular AK activity)) was 0.9 and the fold induction at 50 µM ([6]; planktonic, […], read-out: AK-based Prestwick Library Screening Results, E. coli (fold increase in extracellular AK activity)) was 0.6. The fold induction at 50 µM ([7]; planktonic, […], read-out: AK-based Prestwick Library Screening Results, E. cloacae (fold increase in extracellular AK activity)) was 0.6.
Work on `NS(=O)(=O)c1cc2c(cc1C(F)(F)F)NC(Cc1ccccc1)NS2(=O)=O` (stereo not shown) [Bendroflumethiazide] yielded a fold induction at 50 µM [1, 22] of 1.3, a fold induction at 50 µM [2, 23] of 1.1 and a fold induction at 50 µM [3, 24] of 1.1. The fold induction at 50 µM [4, 25] was 1.3, the fold induction at 50 µM [5, 26] was 1.2 and the fold induction at 50 µM [6, 27] was 1.3. It also gave a fold induction at 50 µM [7, 28] of 1.5.
In the case of `CC(Cc1cccc(C(F)(F)F)c1)NCCOC(=O)c1ccccc1` (stereo not shown) [Benfluorex hydrochloride], the fold induction at 50 µM [1, 8] is reported as 1.2, the fold induction at 50 µM [2, 9] is reported as 1.1 and the fold induction at 50 µM [3, 10] is reported as 1.1. For the same compound, the fold induction at 50 µM [4, 11] was 1, the fold induction at 50 µM [5, 12] was 0.9 and the fold induction at 50 µM [6, 13] was 1.4. It also gave a fold induction at 50 µM [7, 14] of 1.4.
`C/C(=C(\CCOP(=O)(O)O)SC(=O)c1ccccc1)N(C=O)Cc1cnc(C)nc1N` [Benfotiamine] was tested, and the fold induction at 50 µM [1, 15] was 0.5, the fold induction at 50 µM [2, 16] was 0.6 and the fold induction at 50 µM [3, 17] was 0.6. The fold induction at 50 µM [4, 18] was 0.7, the fold induction at 50 µM [5, 19] was 0.9 and the fold induction at 50 µM [6, 20] was 0.7. For the same compound, the fold induction at 50 µM [7, 21] was 0.8.
